From PubChem BioAssay AID1919017 (Molecular Pharmacology Branch, DTP, NCI, 2023)

Test system: SW1271 complex spheroids with HUVEC/MSC, growth, % test/control
Assay: Anticancer human tumor SW1271 cell line growth inhibition [AhR];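 note: spheroids exposed to agents for 7 days before readout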
Conditions: for IC50: curve of first compound; for viability, T/C: stronger effect = lower value; active = viability on the fitted dose curve at most 10% of control; inactive = the rest
Outline: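 Agents were dosed in half-log steps down from roughly clinical Cmax, or from 10 microM where Cmax was unknown, alone and with AhR antagonists. Read-out: percent test/control growth of tumor spheroids containing HUVEC and MSC stromal cells.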

[1] = second compound 0.1 µM, first compound 0.000949 µM
[2] = second compound 0.1 µM, first compound 0.003 µM
[3] = second compound 0.1 µM, first compound 0.00949 µM
[4] = second compound 0.1 µM, first compound 0.03 µM
[5] = second compound 0.1 µM, first compound 0.0949 µM
[6] = second compound 0.1 µM, first compound 0.3 µM
[7] = second compound 0.316 µM, first compound 0.000949 µM
[8] = second compound 0.316 µM, first compound 0.003 µM
[9] = second compound 0.316 µM, first compound 0.00949 µM
[10] = second compound 0.316 µM, first compound 0.03 µM
[11] = second compound 0.316 µM, first compound 0.0949 µM
[12] = second compound 0.316 µM, first compound 0.3 µM
[13] = second compound 1 µM, first compound 0.000949 µM
[14] = second compound 1 µM, first compound 0.003 µM
[15] = second compound 1 µM, first compound 0.00949 µM
[16] = second compound 1 µM, first compound 0.03 µM
[17] = second compound 1 µM, first compound 0.0949 µM
[18] = second compound 1 µM, first compound 0.3 µM
[19] = second compound 3.16 µM, first compound 0.000949 µM
[20] = second compound 3.16 µM, first compound 0.003 µM
[21] = second compound 3.16 µM, first compound 0.00949 µM
[22] = second compound 3.16 µM, first compound 0.03 µM
[23] = second compound 3.16 µM, first compound 0.0949 µM
[24] = second compound 3.16 µM, first compound 0.3 µM
[25] = second compound 10 µM, first compound 0.000949 µM
[26] = second compound 10 µM, first compound 0.003 µM
[27] = second compound 10 µM, first compound 0.00949 µM
[28] = second compound 10 µM, first compound 0.03 µM
[29] = second compound 10 µM, first compound 0.0949 µM
[30] = second compound 10 µM, first compound 0.3 µM

CCc1c2c(nc3ccc(O)cc13)-c1cc3c(c(=O)n1C2)COC(=O)[C@]3(O)CC + CC(CO)NC(=O)c1cc(-c2ccc(Cl)cc2)nn(-c2cnn(C)c2)c1=O
29.9 nM: IC50 (second compound 0.1 µM)
138 nM: IC50 (second compound 1 µM)
> 300 nM: IC50 (second compound 0.316 µM) | IC50 (second compound 3.16 µM) | IC50 (second compound 10 µM)
inactive: viability, T/C [1] 83% | viability, T/C [2] 83.5% | viability, T/C [3] 66% | viability, T/C [4] 51% | viability, T/C [5] 48.2% | viability, T/C [6] 47.3% | viability, T/C [7] 72.8% | viability, T/C [8] 79% | viability, T/C [9] 67.9% | viability, T/C [10] 63.2% | viability, T/C [11] 56.3% | viability, T/C [12] 58.8% | viability, T/C [13] 73.4% | viability, T/C [14] 85.9% | viability, T/C [15] 56.6% | viability, T/C [16] 67% | viability, T/C [17] 54% | viability, T/C [18] 42% | viability, T/C [19] 74.1% | viability, T/C [20] 73.8% | viability, T/C [21] 58% | viability, T/C [22] 55.1% | viability, T/C [23] 49.1% | viability, T/C [24] 50.5% | viability, T/C [25] 71.6% | viability, T/C [26] 65.8% | viability, T/C [27] 55.5% | viability, T/C [28] 58.3% | viability, T/C [29] 45.7% | viability, T/C [30] 54.7%

Nc1ncn(C2CC(O)C(CO)O2)c(=O)n1 (stereo not given) + Cc1cncc(-c2nc(NCCc3c[nH]c4ccccc34)c3ncn(C(C)C)c3n2)c1
> 1000 nM: IC50 (second compound 0.1 µM) | IC50 (second compound 0.316 µM) | IC50 (second compound 1 µM) | IC50 (second compound 3.16 µM)
inactive: viability, T/C (second compound 0.1 µM, first compound 0.00316 µM) 107% | viability, T/C (second compound 0.1 µM, first compound 0.01 µM) 123% | viability, T/C (second compound 0.1 µM, first compound 0.0316 µM) 104% | viability, T/C (second compound 0.1 µM, first compound 0.1 µM) 87% | viability, T/C (second compound 0.1 µM, first compound 0.316 µM) 83.1% | viability, T/C (second compound 0.1 µM, first compound 1 µM) 83.8% | viability, T/C (second compound 0.316 µM, first compound 0.00316 µM) 105% | viability, T/C (second compound 0.316 µM, first compound 0.01 µM) 92.6% | viability, T/C (second compound 0.316 µM, first compound 0.0316 µM) 111% | viability, T/C (second compound 0.316 µM, first compound 0.1 µM) 83.4% | viability, T/C (second compound 0.316 µM, first compound 0.316 µM) 76.3% | viability, T/C (second compound 0.316 µM, first compound 1 µM) 95.1% | viability, T/C (second compound 1 µM, first compound 0.00316 µM) 88.1% | viability, T/C (second compound 1 µM, first compound 0.01 µM) 90.5% | viability, T/C (second compound 1 µM, first compound 0.0316 µM) 107% | viability, T/C (second compound 1 µM, first compound 0.1 µM) 77.3% | viability, T/C (second compound 1 µM, first compound 0.316 µM) 111% | viability, T/C (second compound 1 µM, first compound 1 µM) 84% | viability, T/C (second compound 3.16 µM, first compound 0.00316 µM) 97.4% | viability, T/C (second compound 3.16 µM, first compound 0.01 µM) 103% | viability, T/C (second compound 3.16 µM, first compound 0.0316 µM) 87.9% | viability, T/C (second compound 3.16 µM, first compound 0.1 µM) 104% | viability, T/C (second compound 3.16 µM, first compound 0.316 µM) 90% | viability, T/C (second compound 3.16 µM, first compound 1 µM) 110% | viability, T/C (second compound 10 µM, first compound 0.00316 µM) 52.4% | viability, T/C (second compound 10 µM, first compound 0.01 µM) 54.8% | viability, T/C (second compound 10 µM, first compound 0.0316 µM) 51% | viability, T/C (second compound 10 µM, first compound 0.1 µM) 53% | viability, T/C (second compound 10 µM, first compound 0.316 µM) 48.9% | viability, T/C (second compound 10 µM, first compound 1 µM) 47.5%
307 nM: IC50 (second compound 10 µM)

CC(C)CC(NC(=O)C(Cc1ccccc1)NC(=O)c1cnccn1)B(O)O (stereo not given) + Cc1cncc(-c2nc(NCCc3c[nH]c4ccccc34)c3ncn(C(C)C)c3n2)c1
inactive: viability, T/C [1] 122% | viability, T/C [2] 112% | viability, T/C [3] 11.9% | viability, T/C [7] 84.3% | viability, T/C [8] 113% | viability, T/C [9] 11.3% | viability, T/C [13] 113% | viability, T/C [14] 112% | viability, T/C [15] 13.4% | viability, T/C [19] 107% | viability, T/C [20] 102% | viability, T/C [25] 62.2% | viability, T/C [26] 69.2%
5.61 nM: IC50 (second compound 3.16 µM)
3.96 nM: IC50 (second compound 10 µM)
6.18 nM: IC50 (second compound 1 µM)
active: viability, T/C [4] 0.91% | viability, T/C [5] 0.33% | viability, T/C [6] 0.46% | viability, T/C [10] 0.73% | viability, T/C [11] 0.67% | viability, T/C [12] 0.41% | viability, T/C [16] 1.13% | viability, T/C [17] 0.75% | viability, T/C [18] 0.48% | viability, T/C [21] 5.96% | viability, T/C [22] 0.63% | viability, T/C [23] 0.88% | viability, T/C [24] 0.55% | viability, T/C [27] 0.81% | viability, T/C [28] 0.31% | viability, T/C [29] 0.34% | viability, T/C [30] 0.3%
5.7 nM: IC50 (second compound 0.316 µM)
6.11 nM: IC50 (second compound 0.1 µM)

CCN(c1cc(-c2ccc(CN3CCOCC3)cc2)cc(C(=O)NCc2c(C)cc(C)[nH]c2=O)c1C)C1CCOCC1 + Cc1ccccc1N=Nc1ccc(NC(=O)c2ccnn2C)c(C)c1
> 3000 nM: IC50 (second compound 0.1 µM) | IC50 (second compound 0.316 µM) | IC50 (second compound 1 µM) | IC50 (second compound 3.16 µM) | IC50 (second compound 10 µM)
inactive: viability, T/C [3] 115% | viability, T/C [4] 111% | viability, T/C [5] 117% | viability, T/C [6] 107% | viability, T/C (second compound 0.1 µM, first compound 0.949 µM) 118% | viability, T/C (second compound 0.1 µM, first compound 3 µM) 110% | viability, T/C [9] 115% | viability, T/C [10] 118% | viability, T/C [11] 106% | viability, T/C [12] 123% | viability, T/C (second compound 0.316 µM, first compound 0.949 µM) 105% | viability, T/C (second compound 0.316 µM, first compound 3 µM) 107% | viability, T/C [15] 117% | viability, T/C [16] 110% | viability, T/C [17] 122% | viability, T/C [18] 122% | viability, T/C (second compound 1 µM, first compound 0.949 µM) 98% | viability, T/C (second compound 1 µM, first compound 3 µM) 88% | viability, T/C [21] 99.3% | viability, T/C [22] 114% | viability, T/C [23] 102% | viability, T/C [24] 148% | viability, T/C (second compound 3.16 µM, first compound 0.949 µM) 120% | viability, T/C (second compound 3.16 µM, first compound 3 µM) 108% | viability, T/C [27] 96.5% | viability, T/C [28] 103% | viability, T/C [29] 91.7% | viability, T/C [30] 111% | viability, T/C (second compound 10 µM, first compound 0.949 µM) 103% | viability, T/C (second compound 10 µM, first compound 3 µM) 118%

CCc1c2c(nc3ccc(O)cc13)-c1cc3c(c(=O)n1C2)COC(=O)[C@]3(O)CC + Cc1cncc(-c2nc(NCCc3c[nH]c4ccccc34)c3ncn(C(C)C)c3n2)c1
inactive: viability, T/C [1] 86.5% | viability, T/C [2] 92.8% | viability, T/C [3] 76.6% | viability, T/C [4] 57.4% | viability, T/C [5] 59.5% | viability, T/C [6] 57.8% | viability, T/C [7] 69.5% | viability, T/C [8] 79.8% | viability, T/C [9] 83% | viability, T/C [10] 58.1% | viability, T/C [11] 52.2% | viability, T/C [12] 48.9% | viability, T/C [13] 116% | viability, T/C [14] 104% | viability, T/C [15] 71% | viability, T/C [16] 74.2% | viability, T/C [17] 64.1% | viability, T/C [18] 50.3% | viability, T/C [19] 92% | viability, T/C [20] 90.2% | viability, T/C [21] 75.2% | viability, T/C [22] 63.6% | viability, T/C [23] 60.8% | viability, T/C [24] 41.5% | viability, T/C [25] 55.5% | viability, T/C [26] 45% | viability, T/C [27] 37.2% | viability, T/C [28] 27.9% | viability, T/C [29] 24% | viability, T/C [30] 25.9%
162 nM: IC50 (second compound 3.16 µM)
> 300 nM: IC50 (second compound 0.1 µM) | IC50 (second compound 0.316 µM)
255 nM: IC50 (second compound 1 µM)
1.82 nM: IC50 (second compound 10 µM)
